According to patent publication US20150239824A1, “BRANCHED OR MACROCYCLIC POLYAMINES AND USES THEREOF” (UNIVERSITE DE STRASBOURG, priority 2012, published 2015):
“Also recorded” adds a separate entry of the source.

Key:
[1] = test system: NIH3T3 cells; test: Cell entry of polyamines (Cy3 fluorescence, injection); assay type: cell-based, mouse; settings: 100 μM, 20 min
Method: (§1) Polyamine compounds were dissolved in Milli-Q water to give a stock solution of 30 mM. For immunostaining and microscopy experiments, polyamine compounds were added to the cell medium at a final concentration of 100 μM, except for experiments which tested efficiency. For immunostaining experiments, NIH3T3 cells were incubated with Blebbistatin (30 μM), ML7 (10 μM), Y27632 (10 μM), Cytochalasin D (1 μM) (Sigma-Aldrich) for 30 min, LY294002 (50 μM) (Sigma-Aldrich) for 30 minutes. Latrunculin A (1.5 μM) (Sigma-Aldrich) was added for 5 min. After additional 20 min incubation with 100 μM polyamine, cells were fixed and stained.
Fluorescent images were taken in a Fluorescence Nikon Ti microscope (60× oil objective, NA 1.25) combined with a Photometrics CoolSNAP HQ2 camera and NIS acquisition software.

[2] = target: T1, actin (Oryctolagus cuniculus, UniProt P68135); test: Actin assembly and bundling (light scattering, pyrenyl-actin fluorescence, electron microscopy); assay type: biochemical, rabbit; settings: for bundling / polymerization of actin filaments in vitro: light scattering, neomycin vs BPA: low ionic strength (G-buffer), up to at least 100 μM
T1 construct: Actin was purified from rabbit skeletal muscle, isolated in CaATP-G-actin form by size exclusion chromatography; from tissue; host or cells: rabbit skeletal muscle
Method: (§2) Actin assembly was monitored using as probes the increase in light scattering intensity (310 nm, 90° angle) and in the fluorescence of pyrenyl-actin (excitation 366 nm, emission 407 nm). Measurements were made at room temperature in a Xenius Safas spectrofluorimeter. CaATP-G-actin was converted into MgATP-G-actin by addition of 20 μM MgCl2 and 0.2 mM EGTA to a solution of 10 μM CaATP-G-actin in G buffer. Polymerization was triggered by addition of MgCl2 (1 mM final), EGTA (0.2 mM final) and KCl as indicated to MgATP-G-actin. The 1:1 CaATP-actin complex was obtained by removing free ATP by two consecutive treatments of CaATP-G-actin in G buffer with 10% suspension vol/vol of Dowex-I (BioRad) in G buffer without ATP.
(§3) Actin was purified from rabbit skeletal muscle, isolated in CaATP-G-actin form by size exclusion chromatography in G buffer (5 mM Tris-Cl—, pH 7.8, 0.1 mM CaCl2, 0.2 mM ATP, 1 mM DTT, 0.01% NaN3) and pyrenyl-labeled as described^1. Human gelsolin, mouse profilin, mouse Capping Protein and human ADF were bacterial recombinant proteins, and Arp2/3 was purified from bovine brain as described in Egile et al.^39. His6-tagged human N-WASP was expressed in sf9 cells using the baculovirus expression system and purified as described^39. Spectrin-actin seeds were isolated and purified from human blood cells^40.
Electron microscopy observation of actin assemblies in the presence of C7N6 MPA was performed using a Philips CM12 electron microscope at 80 kV. Samples containing actin (2 μM) in either in G or F form and C7N6 MPA were prepared and placed on glow-discharged carbon-coated grids.

[3] = test system: NIH3T3 cells; test: Immunofluorescence of microtubule and intermediate filament organization; assay type: cell-based, mouse; settings: 100 μM, 20 min
Method: (§4) Cells were fixed in 3% PFA (Sigma-Aldrich) for 17 min and then permeabilized with 0.5% Triton solution (Sigma-Aldrich) for 3 min and rinsed twice with 1× PBS. For actin and focal contacts staining, cells were incubated with Alexa 488 phalloidin (1:200, Molecular Probes) and anti-paxillin monoclonal primary antibody (1:50, BD Biosciences) for 45 min at RT. Samples were finally mounted in 50% Glycerol/1× PBS on glass slides and protected from drying. For the intermediate filaments staining, cells were quenched in NaBH4/PBS solution for 10 min at RT. Cells were incubated first with anti-vimentin (1:500, Convance) for 1 h and then with goat anti-guinea pig Dylight 594 (1:1000, Jackson) for 45 min at RT. Microtubules were fixed using methanol at −20° C. for 10 min and stained with mouse monoclonal anti-alpha tubulin (1:50, Sigma-Aldrich) for 45 min at RT.

[4] = target: T2, N-WASP-coated beads, actin-based propulsion (Oryctolagus cuniculus, UniProt P68135); test: Reconstituted motility assay of N-WASP-coated beads; assay type: biochemical; settings: 50 μM added a few minutes after initiation of comet tail formation
T2 construct: Actin was purified from rabbit skeletal muscle, isolated in CaATP-G-actin form by size exclusion chromatography; from tissue; host or cells: rabbit skeletal muscle (actin); sf9/baculovirus (N-WASP); bacteria (ADF, profilin, Capping Protein); bovine brain (Arp2/3)
Method: Reconstituted motility assays were performed using 2 μm diameter carboxylated polystyrene beads functionalized with N-WASP (170 nM, 2 hours, followed by 1% BSA neutralization for 20 min)^19. Beads were placed in a reconstituted motility mix containing 7.5 μM F-actin, 75 nM Capping Protein, 2 μM profilin, 7 μM ADF, 75 nM Arp2/3 complex in × buffer (10mM HEPES, 0.1M KCl, 1 mM MgCl2, 0.1 mM CaCl2, 1 mM ATP, 7 mM DTT, 1.5 mM DABCO at pH 7.8, 0.5% BSA and 0.2% methylcellulose). C8N6 BPA was then added at 50 μM. Observations were made using a phase contrast Olympus AX70 microscope controlled by MetaMorph 6.3r7 with CCD camera and 20× phase objective. Data analysis was performed to extract bead velocity with ImageJ software. Bead velocity was measured and averaged on 10-15 beads.
as §3

[5] = target: T3, actin filament barbed ends (Oryctolagus cuniculus, UniProt P68135); test: Seeded barbed end growth assay (spectrin-actin seeds); assay type: biochemical, rabbit; settings: neomycin up to at least 100 μM
T3 construct: Actin was purified from rabbit skeletal muscle, isolated in CaATP-G-actin form by size exclusion chromatography; from tissue; host or cells: rabbit skeletal muscle
Method: as §2
Seeded barbed end growth assays were performed at 2.5 μM actin and 0.1 nM spectrin-actin seeds^38. Pointed end growth assays were performed similarly but using preformed gelsolin-actin complexes (2 nM final) as seeds. The initial rate of fluorescence increase was measured.
(§5) Actin was purified from rabbit skeletal muscle, isolated in CaATP-G-actin form by size exclusion chromatography in G buffer (5 mM Tris-Cl—, pH 7.8, 0.1 mM CaCl2, 0.2 mM ATP, 1 mM DTT, 0.01% NaN3) and pyrenyl-labeled as described^1. […]

[6] = test system: REF 52 cell; test: Actin retrograde flow in lamellipodia; assay type: cell-based, rat; settings: lamellipodia region, kymographs, n=6 cells
Method: (§6) Increase in cell area for given time point (n=5, 10 and 20 min) was calculated by (A1n-A0)/A0, where A0 and A1n are the areas before and after polyamine addition, respectively. Kymographs for the analysis of actin retrograde flow in the lamellipodia region were performed in ImageJ. Moving features were visualized as diagonal streaks with slope depending on the velocity of movement.
NIH3T3 mouse fibroblast and REF52 rat embryo fibroblasts (ATCC) were cultured in DMEM supplemented with 10% calf bovine serum (BCS, Sigma-Aldrich) or fetal bovine serum (FCS, Hyclone) and 1% Pen/Streptomycin (InVitrogen). Cells were grown at 37° C. and 5% CO2. For microscopy and immunostaining, cells were trypsinized (0.25% Trypsin-EDTA, InVitrogen), centrifuged and plated on glass coverslips. For live cell observation, Leibovitz's L-15 1× medium (InVitrogen) supplemented with 10% serum (FCS for REF52 and BCS for NIH3T3 cells) and 1% antibiotics was used.
For retrograde flow experiments, surfaces were coated with poly-lysine (Sigma-Aldrich) as described in Verkhovsky et al.^20.
Actin retrograde flow velocity experiments were performed in a Leica DM 2500 Microscope with a 100× oil objective at 37° C. Data acquisition was 1 image/5 sec.

[7] = test system: NIH3T3 cells; test: Growth of lamellipodia / increase in projected cell area in NIH3T3 cells; assay type: cell-based, mouse; settings: 100 μM
Method: as §1, §6, §4
NIH3T3 mouse fibroblast and REF52 rat embryo fibroblasts (ATCC) were cultured in DMEM supplemented with 10% calf bovine serum (BCS, Sigma-Aldrich) or fetal bovine serum (FCS, Hyclone) and 1% Pen/Streptomycin (InVitrogen). […]

[8] = target: T4, F-actin (Oryctolagus cuniculus, UniProt P68135); test: Critical concentration plots, free barbed ends; assay type: biochemical, rabbit; settings: F-actin at steady state
T4 construct: Actin was purified from rabbit skeletal muscle, isolated in CaATP-G-actin form by size exclusion chromatography; from tissue; host or cells: rabbit skeletal muscle
Method: (§7) Critical concentration plots were performed by serial dilution of F-actin (10% pyrenyl-labeled) in F buffer containing the desired amounts of BPA/MPA. Pyrenyl-actin fluorescence was read after overnight incubation in the dark.
as §3

[9] = target: T5, F-actin with ADF (Oryctolagus cuniculus, UniProt P68135); test: ADF-induced depolymerization of gelsolin-capped filaments and sedimentation assay; assay type: biochemical, rabbit
T5 construct: Actin was purified from rabbit skeletal muscle, isolated in CaATP-G-actin form by size exclusion chromatography; from tissue; host or cells: rabbit skeletal muscle (actin); bacteria (ADF, gelsolin)
From the text: Actin-based motile processes result from site-directed initiation of actin assembly by two major signal-responsive protein machineries. WASP family proteins use the Arp2/3 complex to branch filaments at the membrane and assemble a dendritic protrusive meshwork, while formins initiate barbed-end processive assembly of actin bundles. In both cases, force is produced by barbed-end growth fueled by regulated treadmilling. Treadmilling that drives the formation of dendritic actin arrays is enhanced by the synergistic effects of capping proteins, profilin and Actin Depolymerizing Factor (ADF/cofilin). ADF is known to destabilize actin filaments, promoting a large increase in pointed end depolymerization rate, the limiting step in filament treadmilling^17. FIG. 6 Ba-c confirms that gelsolin-capped filaments depolymerize up to a maximum of 30-fold faster in the presence of ADF, in agreement with previous data^17. […] In the presence of cyclic or branched polyamines, the rate of depolymerization was much less enhanced by ADF (about three-fold at 3 μM ADF, versus 30-fold in the control without polyamines).
as §5

[10] = target: T6, actin with Capping Protein (Oryctolagus cuniculus, UniProt P68135); test: Critical concentration and steady-state F-actin in the presence of Capping Protein; assay type: biochemical, rabbit; settings: 100 μM, 1 μM total actin
T6 construct: Actin was purified from rabbit skeletal muscle, isolated in CaATP-G-actin form by size exclusion chromatography; from tissue; host or cells: rabbit skeletal muscle (actin); bacteria (Capping Protein)
Method: as §7, §3

[11] = test system: NIH3T3 cells; test: Actin filament stability in Triton-treated cells; assay type: cell-based, mouse; settings: 100 μM, then 0.1% Triton

| assembly of actin at physiological ionic strength ([2]; 1 mM MgCl2, 0.1 M KCl) | bundling / polymerization of actin filaments in vitro ([2]; listed as BPA) | propulsion rate of N-WASP-coated beads [4] | critical concentration for filament assembly [8] | critical concentration for filament assembly ([8]; listed as BPA) | ADF-induced increase in rate of F-actin depolymerization ([9]; gelsolin-capped filaments) | nucleation / short polymers in the presence of capping protein [10] | Compound | entry into cells [1] | entry into cells ([1]; listed as Cy3-labeled C8N6 BPA) | bundling / polymerization of actin filaments in vitro [2] | organization of microtubules and intermediate filaments [3] | inhibition of barbed-end growth [5] | actin retrograde flow velocity [6] | focal contacts (paxillin immunofluorescence) ([7]; 20 min) | actin bundles within the lamellipodial array ([7]; 20 min, actin staining) | growth of lamellipodia ([7]; NIH3T3 cells, compound added to the cell culture medium) | steady state of actin assembly in the presence of ADF ([9]; sedimentation, F-actin 3 μM, 0.3 mM polyamine, one hour) | nucleation / short polymers in the presence of capping protein ([10]; listed as BPA) | stabilization of actin filaments in Triton-treated cells [11] |
| --- | --- | --- | --- | --- | --- | --- | --- | --- | --- | --- | --- | --- | --- | --- | --- | --- | --- | --- | --- |
|  |  |  |  |  |  |  | CC[N+](CC)(CC)CCC[N+]1=C(/C=C/C=C2/N(CCCCCC(=O)NCCCN(CCCN)CCCCCCCCN(CCCN)CCCN)c3ccccc3C2(C)C)C(C)(C)c2ccccc21 [C8N6 BPA-Cy3] | the polyamines enter the cells | entered the cell and displayed the same effect as the unlabeled C8N6 BPA; also recorded: the polyamines enter the cells |  |  |  |  |  |  |  |  |  |  |
| induced assembly of actin | massive bundling is induced | dramatic decrease in propulsion rate | not significantly affected | strictly superimposable | greatly weakened | enhance nucleation by capping proteins | NCCCN(CCCN)CCCCCCCCN(CCCN)CCCN [C8N6 BPA] |  |  | induce ATP sensitive bundling of actin filaments | no effect on microtubules and intermediate filaments organization | inhibition | clear reduction in the actin retrograde flow | exhibited the expected distribution and shapes of focal contacts | bundles of actin arranged in microspikes were observed | promote growth of lamellipodia | practically unaffected; also recorded: not affected | stabilizes a greater number of short polymers in the presence of capping protein | stabilizes actin filaments in Triton-treated cells like Jasplakinolide |
|  |  |  |  |  |  |  | neomycin [reference compound] |  |  | does not induce bundling of actin; also recorded: does not promote polymerization of actin |  | does not inhibit barbed-end growth; also recorded: not inhibited |  |  |  |  |  |  |  |
